Data on one molecule can be found in patent US20090203685A1, “ANTI-PROLIFERATIVE COMPOUNDS FROM A 3-ARYL-COUMARINE OR 3-ARYL-QUINOLIN-2-ONE AND USES THEREOF” (EOS (ETHICAL ONCOLOGY SCIENCE) S.P.A., priority 2006, published 2009).

Data set [1] is described as follows: Viability (propidium iodide staining), PC3. Type of data set: cell-based. The conditions noted are these: human, PC3 cells (prostate), 500 nM. As to the method:
(§1) Propidium iodide (PI) cannot normally cross the cell membrane; it is thus excluded by viable cells but not from dying or dead cells, having a damaged membrane, where it intercalates into double-stranded nucleic acids and fluoresces when excited at 488 nm.
(§2) The cells are pelleted by gentle centrifugation 1200 rpm/5 min/4° C., then the supernatant is discarded and replaced by 1 mL of fresh medium. One hundred microliters of propidium iodide (40 μg/mL) are added to 400 μL of the cell suspension in a FACS tube and viability is measured by flow cytometry as the percentage of cells whose fluorescence recorded on FL-3 channel is comprised between 0 and 2.
(§3) Viability and cell cycle profile, tested with compound (01), at 500 nM: […]

Data set [2] is described as follows: Viability (propidium iodide staining), A375. The settings on record: human, A375 cells (melanoma), 500 nM. Type of data set: cell-based. On the procedure:
as §1, §2, §3

The test system of data set [3] is CEM. In words: Cell cycle analysis, CEM. Type of data set: cell-based. The settings on record: 500 nM. On the procedure: (§4) The cells are pelleted by gentle centrifugation 1200 rpm/5 min/4° C., then the supernatant is discarded and the cells are fixed with 1 mL of PBS/Ethanol 70% overnight at −20° C. The tubes are then centrifuged during 5 minutes at 1200 rpm and the supernatant is removed. The pellet is then re-suspended in 450 μL of PBS before 50 μL of RNAse (1 mg/mL) and 5 μL of propidium iodide (2 mg/mL) are added. Each tube is left 30 minutes at 37° C. and immediately analysed by flow cytometry after incubation.
(§5) A biparametric dot plot representation FL3 peak vs FL3 integer is plotted and the cells located on the diagonal are gated and analysed on a histogram representing the number of cells as a function of the FL3 peak.
(§6) To assess the relative position of cursors defining relative proportion of cells in subG1, G1, S or G2 phase of the cell cycle, G1 and G2 peaks are to be defined first:
(§7) The G1 peak is defined as the major peak in absence of treatment (generally X=200);
(§8) The G2 peak is centered on the value which is twice the value of the G1 peak (generally X=400).
(§9) Cells in subG1 phase are plotted in the part of the histogram preceding the G1 peak (generally X<200) and cells in S phase are enclosed in the area between the G1 and G2 peaks.
(§10) On this graphic, subG1, G1, S and G2/M phases of the cell cycle can thus be defined.
as §3

For data set [4], the system named is NCI-H460. Put plainly: Cell cycle analysis, NCI-H460. Type of data set: cell-based, human. The conditions noted are these: 500 nM. As to the method:
as §4, §5, §6, §7, §8, §9, §10, §3

In data set [5] the test system is U937 cells. In words: Apoptosis assays by flow cytometry (caspase 3, annexin-V, sub-G1, G2/M, PI) in U937 cells. Type of data set: cell-based, human. The settings on record: 0.5 μM, 4 to 24 hours. As to the method: FIG. 4: This figure depicts the time course of cellular effects induced by 0.5 μM of compound 01 in U937 cells.
The percentage of cells showing activated Caspase 3 and phosphadityl serine exposure at the outer face of the plasma membrane were determined by flow cytometry, according the enclosed protocols. Both assays enable to detect early markers of apoptosis. […] Such DNA content is classically used as a marker of apoptosis. […] Finally, in this same experiment, the percentage of dead cells was determined by incorporation of propidium iodine. […]
Wells corresponding to 4, 6, 8, 10 hours of incubation and Control 1 were analyzed on day 1.
Wells corresponding to 12, 14, 16, 20, 24 hours of incubation and Control 2 were analyzed on day 2. […]
Briefly, 5×10^5 cells were pelleted by centrifugation 1600 rpm/4° C., resuspended in 100 μl of ice-cold 1× Annexin-V Binding Buffer containing 1 μl of Annexin V-FITC solution and 5 μl of PI (250 μg/ml). After 15 minutes of incubation on ice in the dark, 400 μl of 1× binding buffer were added and cell preparations analysed by flow cytometry. […]
For each data point, a minimum of 20.000 cells were analysed.
Caspase-3,7 activity and Annexin-V binding were quantified using the FL-1 channel while PI staining was quantified using the FL-4 channel. […]

Data set [6] has as its system PC3. Put plainly: Cell cycle analysis, PC3. Type of data set: cell-based. The conditions noted are these: 500 nM. On the procedure:
as §4, §5, §6, §7, §8, §9, §10, §3

Data set [7] deals with prostate and lung tumor cells. In words: Viability and cell cycle profile, conclusion for prostate and lung tumor cells. Type of data set: cell-based. The conditions noted are these: 500 nM; cell cycle arrest at entry into mitosis. As to the method: as §1, §2, §4, §3
Data set [8] relates to MRC5. Put plainly: Viability (propidium iodide staining), MRC5. Type of data set: cell-based. The settings on record: 500 nM. On the procedure:
as §1, §2, §3

The nature of data set [9]: Viability (propidium iodide staining), MRC5. Type of data set: cell-based. The conditions noted are these: human, MRC5 non-transformed fibroblasts, 500 nM. On the procedure:
as §1, §2, §3

The test system of data set [10] is U937. In words: Cell cycle analysis, U937. Type of data set: cell-based, human. The settings on record: 500 nM. On the procedure: as §4, §5, §6, §7, §8, §9, §10, §3
The nature of data set [11]: Viability (propidium iodide staining), U937. The conditions noted are these: human, U937 cells (myeloid), 500 nM. Type of data set: cell-based. On the procedure:
as §1, §2, §3

Data set [12] is described as follows: Viability (propidium iodide staining), CEM. Type of data set: cell-based. The conditions noted are these: human, CEM cells (lymphoid), 500 nM. On the procedure: as §1, §2, §3

Turning to `COc1cc(NC(=S)NC(=O)/C=C/c2ccco2)ccc1-c1cc2ccccc2oc1=O` [Compound 01, (2E)-3-(2-furyl)-N-({[3-methoxy-4-(2-oxo-2H-chromen-3-yl)phenyl]amino}carbonothioyl)acrylamide], the viability at 48 h, 0.5 µM in data set [1] (48 h) amounted to 92%; in [2] (48 h), 65%; in data set [9] (48 h) it was 94%; in data set [11] (48 h), 25%; in data set [12] (48 h), 10%. Besides, the viability at 72 h, 0.5 µM is 90% in [1] (72 h); 35% in [2] (72 h); 89% in data set [9] (72 h); 6% in [11] (72 h); 2% in [12] (72 h). For the same molecule, the “Cell cycle profile - 72 h” value in data set [3] was “Strong sub-G1”; in data set [4] (G2/M phase fraction) it was “G2/M accumulation”; in data set [4] (sub-G1 fraction), “Strong sub-G1”; in data set [6] it was “G2/M accumulation”; in data set [10] it was “Strong sub-G1”. Further, the “Cytostatic effect on U937 cells (early increase of G2/M population)” value in data set [5] was “cytostatic effect”. For the same molecule, the “Induction of apoptosis (activated caspase 3, phosphatidylserine exposure, sub-G1 DNA content)” value in data set [5] was “induces apoptosis”. Further, in data set [7], the “Effect on prostate and lung tumor cells” value is reported as “cytostatic effect”. Moreover, in [8], the “Effect on control non-transformed cells (MRC5)” value is “unaffected”.
